Experimental data published in patent US20230250095A1, “BENZIMIDAZOLE DERIVATIVES, PREPARATION METHOD THEREFOR AND MEDICAL USE THEREOF” (TUOJIE BIOTECH(SHANGHAI) CO., LTD., priority 2020, published 2023).

Columns and labels:
Format in all cases: in vitro ADME
CYP1A2 = target: T1, CYP1A2 (Homo sapiens, UniProt P05177); experiment: CYP inhibition assay in pooled human liver microsomes (phenacetin); details: human liver microsomes 0.2 mg/mL, substrate phenacetin; read-out: CYP 1A2 (μM) IC50
T1 construct: 150-donor pooled human liver microsomes (purchased from Corning, Cat. No. 452117); tissue Corning 452117; host or cells: 150-donor pooled human liver microsomes
T1 sequence (P05177 1-516): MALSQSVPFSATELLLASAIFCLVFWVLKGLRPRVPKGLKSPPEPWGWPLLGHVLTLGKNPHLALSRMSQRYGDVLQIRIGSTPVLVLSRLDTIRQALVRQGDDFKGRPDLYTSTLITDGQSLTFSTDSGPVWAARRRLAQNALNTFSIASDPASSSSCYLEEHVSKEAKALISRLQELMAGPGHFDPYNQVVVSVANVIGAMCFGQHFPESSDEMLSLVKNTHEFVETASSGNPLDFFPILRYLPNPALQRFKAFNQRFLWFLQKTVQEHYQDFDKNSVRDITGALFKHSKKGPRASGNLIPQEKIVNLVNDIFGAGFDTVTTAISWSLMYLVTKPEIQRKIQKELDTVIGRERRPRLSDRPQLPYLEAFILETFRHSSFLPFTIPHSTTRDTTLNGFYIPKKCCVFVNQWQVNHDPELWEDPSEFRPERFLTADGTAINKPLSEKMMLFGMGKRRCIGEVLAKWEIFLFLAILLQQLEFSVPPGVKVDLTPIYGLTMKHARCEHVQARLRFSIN
Procedure: (§1) The metabolic reactions of representative substrates of 5 major human CYP subtypes (CYP1A2, CYP2C9, CYP2C19, CYP2D6, CYP3A4/5) were evaluated using 150-donor pooled human liver microsomes (purchased from Corning, Cat. No. 452117). The effects of different concentrations of the test compounds on the metabolic reactions of phenacetin (CYP1A2), diclofenac sodium (CYP2C9), S-mephenytoin (CYP2C19), bufuralol hydrochloride (CYP2D6) and midazolam (CYP3A4/5) were determined by liquid chromatography-tandem mass spectrometry (LC/MS/MS).
(§2) 30 μM phenacetin, 10 μM diclofenac sodium, 35 μM S-mephenytoin, 5 μM bufuralol hydrochloride, 3 μM midazolam, 1 mM NADPH, and test compounds (at concentrations of 0.1 μmol/L, 0.3 μmol/L, 1 μmol/L, 3 μmol/L, 10 μmol/L, and 30 μmol/L, respectively) or positive compound or blank were incubated with 200 μL of a reaction system of pooled human liver microsomes (0.2 mg/mL) (100 mmol/L phosphate buffer, pH 7.4, containing 0.3% by volume of DMSO, 0.6% by volume of acetonitrile, and 0.1% by volume of methanol) at 37° C. for 5 min. Then, 200 μL of acetonitrile containing 3% formic acid and 40 nM internal standard verapamil was added, and the mixture was centrifuged at 4000 rpm for 50 min. The mixture was cooled on ice for 20 min and centrifuged at 4000 rpm for 20 min to precipitate the protein. 200 μL of the supernatant was analyzed by LC/MS/MS.
(§3) The peak area was calculated from the chromatogram. The residual activity rate (%) was calculated by the following formula:
(§4) peak area rate=peak area of metabolite/peak area of internal standard
(§5) residual activity rate (%)=peak area proportion of the test compound group/peak area proportion of the blank group
(§6) The half maximal inhibitory concentrations (IC50) against CYP were calculated by Excel XLfit 5.3.1.3.

CYP2D6 = target: T2, CYP2D6 (Homo sapiens, UniProt P10635); experiment: CYP inhibition assay in pooled human liver microsomes (bufuralol hydrochloride); details: human liver microsomes 0.2 mg/mL, substrate bufuralol hydrochloride; read-out: CYP 2D6 (μM) IC50
T2 construct: 150-donor pooled human liver microsomes (purchased from Corning, Cat. No. 452117); tissue Corning 452117; host or cells: 150-donor pooled human liver microsomes
Procedure: as §1, §2, §3, §4, §5, §6

CYP2C9 = target: T3, CYP2C9 (Homo sapiens, UniProt P11712); experiment: CYP inhibition assay in pooled human liver microsomes (diclofenac sodium); details: human liver microsomes 0.2 mg/mL, substrate diclofenac sodium; read-out: CYP 2C9 (μM) IC50
T3 construct: 150-donor pooled human liver microsomes (purchased from Corning, Cat. No. 452117); tissue Corning 452117; host or cells: 150-donor pooled human liver microsomes
Procedure: as §1, §2, §3, §4, §5, §6

T2 sequence (P10635 whole entry): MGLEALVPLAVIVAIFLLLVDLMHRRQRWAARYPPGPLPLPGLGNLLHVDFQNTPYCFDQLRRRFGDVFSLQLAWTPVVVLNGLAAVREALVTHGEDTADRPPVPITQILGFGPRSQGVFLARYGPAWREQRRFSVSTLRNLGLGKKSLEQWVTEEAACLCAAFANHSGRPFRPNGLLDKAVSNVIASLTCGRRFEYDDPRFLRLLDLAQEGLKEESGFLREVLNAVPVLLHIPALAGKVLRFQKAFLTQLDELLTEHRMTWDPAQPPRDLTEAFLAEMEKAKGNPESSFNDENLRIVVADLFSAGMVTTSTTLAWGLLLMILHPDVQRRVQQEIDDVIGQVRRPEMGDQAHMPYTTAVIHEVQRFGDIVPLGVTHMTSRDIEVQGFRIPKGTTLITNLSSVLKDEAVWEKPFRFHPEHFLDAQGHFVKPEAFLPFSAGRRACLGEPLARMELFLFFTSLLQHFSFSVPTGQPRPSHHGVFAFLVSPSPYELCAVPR
T3 sequence (P11712 whole entry): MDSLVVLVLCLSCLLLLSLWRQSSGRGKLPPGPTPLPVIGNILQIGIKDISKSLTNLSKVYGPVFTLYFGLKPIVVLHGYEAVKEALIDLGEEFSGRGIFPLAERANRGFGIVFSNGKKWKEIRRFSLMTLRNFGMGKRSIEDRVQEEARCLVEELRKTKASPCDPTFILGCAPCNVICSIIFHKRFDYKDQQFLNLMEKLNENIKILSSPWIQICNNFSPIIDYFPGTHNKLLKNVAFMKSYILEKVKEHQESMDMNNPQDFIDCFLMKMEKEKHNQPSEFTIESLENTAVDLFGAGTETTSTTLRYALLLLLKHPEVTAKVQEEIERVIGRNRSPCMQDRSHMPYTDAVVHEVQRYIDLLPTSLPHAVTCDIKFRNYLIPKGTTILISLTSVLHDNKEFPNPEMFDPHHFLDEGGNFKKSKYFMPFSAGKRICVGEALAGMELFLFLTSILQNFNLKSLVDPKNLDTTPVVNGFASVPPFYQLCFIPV

IC50 (CYP1A2)	IC50 (CYP2D6)	IC50 (CYP2C9)	Structure (SMILES)
> 30 µM	> 30 µM	21.7 µM	CC(=O)N1CCOC(Cn2c(-c3c(F)cc(N4CCCC4=O)cc3F)nc3cc(C)ccc32)C1 (stereo in doubt) [Compound 1]
> 30 µM	> 30 µM	3.06 µM	COC(=O)N1CCOC(Cn2c(-c3c(F)cc(N4CCCC4=O)cc3F)nc3cc(C)ccc32)C1 (stereo not drawn) [Compound 2, Methyl 2-((2-(2,6-difluoro-4-(2-carbonylpyrrolidin-1-yl)phenyl)-5-methyl-1H-benzo[d]imidazol-1-yl)methyl)morpholine-4-carboxylate]
> 30 µM	> 30 µM	> 30 µM	CC(=O)N1CCO[C@@H](Cn2c(-c3ccc(N4CCCC4=O)cc3Cl)nc3cc(C)ccc32)C1 [Compound 3, (S)-1-(4-(1-((4-acetylmorpholin-2-yl)methyl)-5-methyl-1H-benzo[d]imidazol-2-yl)-3-chlorophenyl)pyrrolidin-2-one]
> 30 µM	> 30 µM	> 30 µM	CC(=O)N1CCO[C@@H](Cn2c(-c3c(F)cc(N4CCCC4=O)cc3Cl)nc3cc(C)ccc32)C1 [Compound 4, (S)-1-(4-(1-((4-acetylmorpholin-2-yl)methyl)-5-methyl-1H-benzo[d]imidazol-2-yl)-3-chloro-5-fluorophenyl)pyrrolidin-2-one]
> 30 µM	> 30 µM	> 30 µM	CC(=O)N1CCO[C@@H](Cn2c(-c3c(F)cc(N4CCCC4=O)cc3F)nc3cc(Cl)ccc32)C1 [Compound 10, (S)-1-(4-(1-((4-acetylmorpholin-2-yl)methyl)-5-chloro-1H-benzo[d]imidazol-2-yl)-3,5-difluorophenyl)pyrrolidin-2-one]
> 30 µM	> 30 µM	21.9 µM	[2H]C([2H])([2H])c1ccc2c(c1)nc(-c1c(F)cc(N3CCCC3=O)cc1F)n2C[C@H]1CN(C(C)=O)CCO1 [Compound 14, (S)-1-(4-(1-((4-acetylmorpholin-2-yl)methyl)-5-(methyl-d3)-1H-benzo[d]imidazol-2-yl)-3,5-difluorophenyl)pyrrolidin-2-one]

Structure (SMILES)	IC50 (CYP1A2)	IC50 (CYP2D6)	IC50 (CYP2C9)
COC(=O)N1CCO[C@@H](Cc2c(-c3c(F)cc(N4CCCC4=O)cc3F)nc3cc(C)ccn23)C1 [Compound 9, Methyl (S)-2-((2-(2,6-difluoro-4-(2-carbonylpyrrolidin-1-yl)phenyl)-7-methylimidazo[1,2-a]pyridin-3-yl)methyl)morpholine-4-carboxylate]	> 30 µM	> 30 µM	1.48 µM
